In experiment [1] the target is Metabotropic glutamate receptor 2 (Rattus norvegicus) (UniProt P31421). Kind of experiment: Binding affinity for mGluR2 receptor expressed in CHO cells.
The target is the same in experiment [2]. In words: Effective concentration against mGluR2 receptor expressed in CHO cells.

SMILES strings stand for the structures.

Metabotropic glutamate receptor 2 (Rattus norvegicus), sequence (P31421 whole entry, looked up): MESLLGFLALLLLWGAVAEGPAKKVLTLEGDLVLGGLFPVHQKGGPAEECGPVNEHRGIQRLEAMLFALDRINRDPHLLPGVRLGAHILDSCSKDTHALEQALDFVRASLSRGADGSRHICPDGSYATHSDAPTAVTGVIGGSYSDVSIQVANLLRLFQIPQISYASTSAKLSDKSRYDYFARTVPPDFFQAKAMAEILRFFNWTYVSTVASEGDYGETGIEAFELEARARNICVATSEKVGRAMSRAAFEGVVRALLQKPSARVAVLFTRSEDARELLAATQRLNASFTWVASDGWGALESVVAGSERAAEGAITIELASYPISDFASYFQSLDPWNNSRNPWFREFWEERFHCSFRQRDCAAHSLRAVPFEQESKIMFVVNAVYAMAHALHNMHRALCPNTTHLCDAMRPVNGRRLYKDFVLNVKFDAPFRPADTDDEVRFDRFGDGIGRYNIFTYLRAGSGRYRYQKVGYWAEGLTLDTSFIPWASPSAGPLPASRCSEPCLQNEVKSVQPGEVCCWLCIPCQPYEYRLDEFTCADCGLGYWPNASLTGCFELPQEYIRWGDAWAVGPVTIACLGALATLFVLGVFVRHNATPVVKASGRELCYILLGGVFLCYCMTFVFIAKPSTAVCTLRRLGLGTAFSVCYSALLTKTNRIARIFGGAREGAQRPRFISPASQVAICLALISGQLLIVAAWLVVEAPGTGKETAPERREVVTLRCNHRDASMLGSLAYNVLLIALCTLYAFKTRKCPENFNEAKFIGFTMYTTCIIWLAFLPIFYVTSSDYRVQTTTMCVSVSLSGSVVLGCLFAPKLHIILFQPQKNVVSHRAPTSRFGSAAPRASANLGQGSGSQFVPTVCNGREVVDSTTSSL

Regarding `N[C@@H](C[C@H]1CC(C(=O)O)=NO1)C(=O)O` [5-(2-Amino-2-carboxy-ethyl)-4,5-dihydro-isoxazole-3-carboxylic acid], the Ki in experiment [1] was > 1000 µM. In experiment [2], the EC50 is > 1000 µM.
